PubChem BioAssay AID1963979 (Molecular Pharmacology Branch, DTP, NCI, 2024)

Test system: 361931-004-R-J1-PDC multicell spheroid viability
Assay: Anticancer human tumor 361931-004-R-J1-PDC patient-derived colon adenocarcinoma cell line growth inhibition [PI3K]
Details: for IC50: curve of first compound; for viability, T/C: stronger effect = lower value
Summary of the method: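 Tumor cells grown as multi-cell spheroids with HUVEC endothelial cells and MSC fibroblast-like stroma were treated with targeted agents combined with inavolisib, alpelisib, duvelisib or copanlisib. Doses fell in half-log steps from near clinical Cmax, else from 10 microM. Viability was measured.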

[1] = second compound 0.00316 µM, first compound 0.0316 µM
[2] = second compound 0.00316 µM, first compound 0.1 µM
[3] = second compound 0.00316 µM, first compound 0.316 µM
[4] = second compound 0.00316 µM, first compound 1 µM
[5] = second compound 0.00316 µM, first compound 3.16 µM
[6] = second compound 0.00316 µM, first compound 10 µM
[7] = second compound 0.01 µM, first compound 0.0316 µM
[8] = second compound 0.01 µM, first compound 0.1 µM
[9] = second compound 0.01 µM, first compound 0.316 µM
[10] = second compound 0.01 µM, first compound 1 µM
[11] = second compound 0.01 µM, first compound 3.16 µM
[12] = second compound 0.01 µM, first compound 10 µM
[13] = second compound 0.0316 µM, first compound 0.0316 µM
[14] = second compound 0.0316 µM, first compound 0.1 µM
[15] = second compound 0.0316 µM, first compound 0.316 µM
[16] = second compound 0.0316 µM, first compound 1 µM
[17] = second compound 0.0316 µM, first compound 3.16 µM
[18] = second compound 0.0316 µM, first compound 10 µM
[19] = second compound 0.1 µM, first compound 0.0316 µM
[20] = second compound 0.1 µM, first compound 0.1 µM
[21] = second compound 0.1 µM, first compound 0.316 µM
[22] = second compound 0.1 µM, first compound 1 µM
[23] = second compound 0.1 µM, first compound 3.16 µM
[24] = second compound 0.1 µM, first compound 10 µM
[25] = second compound 0.316 µM, first compound 0.0316 µM
[26] = second compound 0.316 µM, first compound 0.1 µM
[27] = second compound 0.316 µM, first compound 0.316 µM
[28] = second compound 0.316 µM, first compound 1 µM
[29] = second compound 0.316 µM, first compound 3.16 µM
[30] = second compound 0.316 µM, first compound 10 µM
[31] = second compound 1 µM, first compound 0.0316 µM
[32] = second compound 1 µM, first compound 0.1 µM
[33] = second compound 1 µM, first compound 0.316 µM
[34] = second compound 1 µM, first compound 1 µM
[35] = second compound 1 µM, first compound 3.16 µM
[36] = second compound 1 µM, first compound 10 µM
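Further: spheroids exposed to agents for seven days before readout.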

Question: CC1(C)CCC(Nc2ncc(C(F)(F)F)c(-c3c[nH]c4c(P(C)(C)=O)c(C#N)ccc34)n2)CN1 (stereo unspecified) + COc1c(OCCCN2CCOCC2)ccc2c3n(c(=NC(=O)c4cnc(N)nc4)nc12)CCN3 was tested. Which IC50 (second compound 0.00316 µM) did it give?
Answer: 5.54 µM

Question: And the IC50 (second compound 0.01 µM)?
Answer: 4.87 µM

Question: And the IC50 (second compound 0.0316 µM)?
Answer: 4.49 µM

Question: What about the IC50 (second compound 0.1 µM) of the same molecule?
Answer: 3.68 µM

Question: And the IC50 (second compound 0.316 µM)?
Answer: < 0.0316 µM

Question: And the IC50 (second compound 1 µM)?
Answer: < 0.0316 µM

Question: And the viability, T/C [1]?
Answer: 85.5%

Question: What about the viability, T/C [2] of the same molecule?
Answer: 94.7%

Question: What about the viability, T/C [3] of the same molecule?
Answer: 83.8%

Question: What about the viability, T/C [4] of the same molecule?
Answer: 92.7%

Question: What about the viability, T/C [5] of the same molecule?
Answer: 85.1%

Question: What about the viability, T/C [6] of the same molecule?
Answer: 12.9%

Question: And the viability, T/C [7]?
Answer: 92.4%

Question: What about the viability, T/C [8] of the same molecule?
Answer: 92.7%

Question: What about the viability, T/C [9] of the same molecule?
Answer: 82%

Question: What about the viability, T/C [10] of the same molecule?
Answer: 83.1%

Question: What about the viability, T/C [11] of the same molecule?
Answer: 73.6%

Question: And the viability, T/C [12]?
Answer: 12.7%

Question: And the viability, T/C [13]?
Answer: 80.7%

Question: And the viability, T/C [14]?
Answer: 72.5%

Question: What about the viability, T/C [15] of the same molecule?
Answer: 67.7%

Question: What about the viability, T/C [16] of the same molecule?
Answer: 66.3%

Question: What about the viability, T/C [17] of the same molecule?
Answer: 67.1%

Question: And the viability, T/C [18]?
Answer: 12%

Question: And the viability, T/C [19]?
Answer: 63.4%

Question: And the viability, T/C [20]?
Answer: 56.6%

Question: And the viability, T/C [21]?
Answer: 59.3%

Question: What about the viability, T/C [22] of the same molecule?
Answer: 51.6%

Question: What about the viability, T/C [23] of the same molecule?
Answer: 56.6%

Question: What about the viability, T/C [24] of the same molecule?
Answer: 8.34%

Question: And the viability, T/C [25]?
Answer: 39.4%

Question: And the viability, T/C [26]?
Answer: 49.5%

Question: And the viability, T/C [27]?
Answer: 43.8%

Question: And the viability, T/C [28]?
Answer: 44.2%

Question: And the viability, T/C [29]?
Answer: 42.6%

Question: What about the viability, T/C [30] of the same molecule?
Answer: 5.6%

Question: What about the viability, T/C [31] of the same molecule?
Answer: 20.4%

Question: What about the viability, T/C [32] of the same molecule?
Answer: 18.4%

Question: What about the viability, T/C [33] of the same molecule?
Answer: 19.9%

Question: And the viability, T/C [34]?
Answer: 24.3%

Question: What about the viability, T/C [35] of the same molecule?
Answer: 19.9%

Question: What about the viability, T/C [36] of the same molecule?
Answer: 2.05%

Question: For CC(C)NCC(C(=O)N1CCN(c2ncnc3c2C(C)CC3O)CC1)c1ccc(Cl)cc1 (stereo unspecified) + CC(Nc1ccc2c(c1)OCCn1cc(N3C(=O)OCC3C(F)F)nc1-2)C(N)=O, which IC50 (second compound 0.00316 µM) is on record?
Answer: 1.27 µM

Question: And the IC50 (second compound 0.01 µM)?
Answer: 1.24 µM

Question: And the IC50 (second compound 0.0316 µM)?
Answer: 0.906 µM

Question: And the IC50 (second compound 0.1 µM)?
Answer: 1.36 µM

Question: And the IC50 (second compound 0.316 µM)?
Answer: 1.04 µM

Question: And the IC50 (second compound 1 µM)?
Answer: 1.09 µM

Question: And the viability, T/C [1]?
Answer: 93.3%

Question: What about the viability, T/C [2] of the same molecule?
Answer: 99%

Question: And the viability, T/C [3]?
Answer: 78.1%

Question: And the viability, T/C [4]?
Answer: 55.2%

Question: And the viability, T/C [5]?
Answer: 31.6%

Question: And the viability, T/C [6]?
Answer: 18.9%

Question: What about the viability, T/C [7] of the same molecule?
Answer: 105%

Question: And the viability, T/C [8]?
Answer: 92.9%

Question: And the viability, T/C [9]?
Answer: 75.9%

Question: What about the viability, T/C [10] of the same molecule?
Answer: 55.3%

Question: And the viability, T/C [11]?
Answer: 31.8%

Question: And the viability, T/C [12]?
Answer: 19.9%

Question: What about the viability, T/C [13] of the same molecule?
Answer: 97.9%

Question: And the viability, T/C [14]?
Answer: 96.6%

Question: What about the viability, T/C [15] of the same molecule?
Answer: 76%

Question: And the viability, T/C [16]?
Answer: 46.4%

Question: And the viability, T/C [17]?
Answer: 30.2%

Question: And the viability, T/C [18]?
Answer: 18.8%

Question: And the viability, T/C [19]?
Answer: 101%

Question: What about the viability, T/C [20] of the same molecule?
Answer: 95%

Question: What about the viability, T/C [21] of the same molecule?
Answer: 71.2%

Question: What about the viability, T/C [22] of the same molecule?
Answer: 50.9%

Question: What about the viability, T/C [23] of the same molecule?
Answer: 41.8%

Question: And the viability, T/C [24]?
Answer: 18.3%

Question: What about the viability, T/C [25] of the same molecule?
Answer: 90.5%

Question: And the viability, T/C [26]?
Answer: 77.4%

Question: And the viability, T/C [27]?
Answer: 74%

Question: And the viability, T/C [28]?
Answer: 51.2%

Question: And the viability, T/C [29]?
Answer: 28.6%

Question: And the viability, T/C [30]?
Answer: 20.7%

Question: And the viability, T/C [31]?
Answer: 72.3%

Question: What about the viability, T/C [32] of the same molecule?
Answer: 71.1%

Question: And the viability, T/C [33]?
Answer: 68.9%

Question: And the viability, T/C [34]?
Answer: 51.7%

Question: What about the viability, T/C [35] of the same molecule?
Answer: 25.3%

Question: And the viability, T/C [36]?
Answer: 15.3%

Question: What does the source list for CC(C)NCC(C(=O)N1CCN(c2ncnc3c2C(C)CC3O)CC1)c1ccc(Cl)cc1 (stereo unspecified) + COc1c(OCCCN2CCOCC2)ccc2c3n(c(=NC(=O)c4cnc(N)nc4)nc12)CCN3?
Answer: IC50 (second compound 0.00316 µM): 3.3 µM; IC50 (second compound 0.01 µM): 2.88 µM; IC50 (second compound 0.0316 µM): 2.37 µM; IC50 (second compound 0.1 µM): 1.68 µM; IC50 (second compound 0.316 µM): 0.161 µM; IC50 (second compound 1 µM): < 0.0316 µM; viability, T/C [1]: 102%; viability, T/C [2]: 97.8%; viability, T/C [3]: 95.2%; viability, T/C [4]: 86.9%; viability, T/C [5]: 50.9%; viability, T/C [6]: 19.5%; viability, T/C [7]: 99%; viability, T/C [8]: 100%; viability, T/C [9]: 90.9%; viability, T/C [10]: 78.7%; viability, T/C [11]: 46.9%; viability, T/C [12]: 26.6%; viability, T/C [13]: 95%; viability, T/C [14]: 89.8%; viability, T/C [15]: 94.2%; viability, T/C [16]: 70.6%; viability, T/C [17]: 43.6%; viability, T/C [18]: 25.7%; viability, T/C [19]: 89.9%; viability, T/C [20]: 76.9%; viability, T/C [21]: 71%; viability, T/C [22]: 60.5%; viability, T/C [23]: 39%; viability, T/C [24]: 21.9%; viability, T/C [25]: 58%; viability, T/C [26]: 52.3%; viability, T/C [27]: 47.4%; viability, T/C [28]: 36.8%; viability, T/C [29]: 34.5%; viability, T/C [30]: 21.3%; viability, T/C [31]: 26%; viability, T/C [32]: 21.8%; viability, T/C [33]: 20.8%; viability, T/C [34]: 20.4%; viability, T/C [35]: 17.6%; viability, T/C [36]: 11.6%
